Bounds are passed on as bounds.

In experiment [1] the test system is THP-1 human acute monocytic leukemia cell with NRAS G12D mutation. Briefly: THP-1 cell proliferation assay (counter screen). It is filed as cell-based. The following applies: Homo sapiens, THP-1 cells, 72 hours treatment, CellTiter96, read-out: anti-proliferation activity THP-1 NRAS N12D, IC50 ranking. Summed up:
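Viability measured as 490 nm absorbance after 2–4 h with CellTiter96 AQueous One reagent, following 72 h treatment with rising compound concentrations. THP-1 cells, 5000/well, grown in RPMI 1640 with 10% FBS and 0.05 mM 2-mercaptoethanol at 37° C, 5% CO2, plated overnight before dosing.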

Experiment [2] concerns the target T1, MET kinase (Homo sapiens, UniProt P08581).
T1 construct: purchased SignalChem
As to the kind of experiment: MET kinase assay (AlphaScreen, counter screen). The following applies: read-out: Ranking of IC50 values, MET. It is filed as biochemical. The procedure, abridged:
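IC50 came from duplicate serial dilutions, with AlphaScreen detection of phosphorylated biotin-poly(Glu4:Tyr1). The reaction used 1 ng recombinant MET, 10 µM ATP […], and MOPS pH 7.0/MgCl2 buffer, ran 45 min at 30 °C, and was quenched with EDTA.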
(In general: Bead proximity is the source of the signal in Alpha formats.)

Experiment [3] has as its target T2, PDGFRα kinase (Homo sapiens, UniProt P16234).
T2 construct: purchased SignalChem
As to the kind of experiment: PDGFRα kinase assay (AlphaScreen). In kind it is biochemical. The following applies: read-out: Ranking of IC50 values, PDGFRα. Summed up: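 IC50 values came from duplicate serial dilutions, with product read by AlphaScreen. The reaction ran 30 min at 30 °C, then EDTA stop: 1.5 ng recombinant enzyme, biotin-poly(Glu4:Tyr1) substrate, 10 μM ATP, 10 mM MOPS pH 7.0, 10 mM MgCl2.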

The test system of experiment [4] is A375 melanoma cell with BRAF V600E mutation. Briefly: A375 cell proliferation assay (counter screen). In kind it is cell-based, human. The following applies: Homo sapiens, A-375, A375 cells, 72 hours treatment, CellTiter96, read-out: anti-proliferation activity A375 BRAF V600E, IC50 ranking. Summed up:
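A375 cells (BRAF V600E) seeded at 2000 cells/well in DMEM with 10% FBS, settled overnight at 37° C, 5% CO2, then exposed to increasing compound concentrations for 72 hours. Viability read by MTS-type CellTiter96 AQueous reagent, absorbance at 490 nm after 2–4 hours.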
(The purpose of a counterscreen is to sort out artefacts and off-target activity.)

T1 sequence (P08581 25-1390): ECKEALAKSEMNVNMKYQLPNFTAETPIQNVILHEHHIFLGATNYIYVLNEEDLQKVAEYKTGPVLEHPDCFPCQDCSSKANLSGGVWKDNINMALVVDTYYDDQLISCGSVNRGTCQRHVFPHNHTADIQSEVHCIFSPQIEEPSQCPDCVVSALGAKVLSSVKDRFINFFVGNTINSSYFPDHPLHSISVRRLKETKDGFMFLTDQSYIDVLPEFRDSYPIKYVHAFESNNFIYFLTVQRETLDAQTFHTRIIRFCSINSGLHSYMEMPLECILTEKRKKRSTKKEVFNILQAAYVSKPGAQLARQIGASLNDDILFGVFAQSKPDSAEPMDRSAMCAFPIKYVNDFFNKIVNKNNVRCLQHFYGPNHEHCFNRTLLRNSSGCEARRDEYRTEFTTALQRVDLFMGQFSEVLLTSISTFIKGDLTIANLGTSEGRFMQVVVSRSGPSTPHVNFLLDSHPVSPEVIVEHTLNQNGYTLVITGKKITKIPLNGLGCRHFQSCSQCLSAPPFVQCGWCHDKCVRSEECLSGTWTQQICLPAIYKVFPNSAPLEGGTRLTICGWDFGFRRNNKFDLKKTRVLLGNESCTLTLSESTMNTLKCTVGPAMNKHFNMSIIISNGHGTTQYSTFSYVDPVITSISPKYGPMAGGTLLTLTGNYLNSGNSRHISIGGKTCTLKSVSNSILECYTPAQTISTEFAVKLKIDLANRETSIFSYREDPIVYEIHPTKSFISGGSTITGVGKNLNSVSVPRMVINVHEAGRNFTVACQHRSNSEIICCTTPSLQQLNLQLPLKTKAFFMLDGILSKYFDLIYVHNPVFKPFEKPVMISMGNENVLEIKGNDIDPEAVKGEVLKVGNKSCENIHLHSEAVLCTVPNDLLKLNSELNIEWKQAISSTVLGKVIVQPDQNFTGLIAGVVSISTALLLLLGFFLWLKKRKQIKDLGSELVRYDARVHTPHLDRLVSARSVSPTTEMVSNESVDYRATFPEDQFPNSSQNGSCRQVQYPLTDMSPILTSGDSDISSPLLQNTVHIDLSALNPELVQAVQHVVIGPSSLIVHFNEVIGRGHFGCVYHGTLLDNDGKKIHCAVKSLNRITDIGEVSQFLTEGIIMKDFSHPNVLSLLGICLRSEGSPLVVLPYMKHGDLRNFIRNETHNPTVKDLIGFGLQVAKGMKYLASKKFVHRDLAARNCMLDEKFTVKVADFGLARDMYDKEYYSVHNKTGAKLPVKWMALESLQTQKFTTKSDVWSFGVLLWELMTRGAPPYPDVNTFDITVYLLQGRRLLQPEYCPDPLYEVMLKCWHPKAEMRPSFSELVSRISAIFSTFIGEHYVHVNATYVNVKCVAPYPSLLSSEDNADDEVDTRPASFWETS
T2 sequence (P16234 24-1089): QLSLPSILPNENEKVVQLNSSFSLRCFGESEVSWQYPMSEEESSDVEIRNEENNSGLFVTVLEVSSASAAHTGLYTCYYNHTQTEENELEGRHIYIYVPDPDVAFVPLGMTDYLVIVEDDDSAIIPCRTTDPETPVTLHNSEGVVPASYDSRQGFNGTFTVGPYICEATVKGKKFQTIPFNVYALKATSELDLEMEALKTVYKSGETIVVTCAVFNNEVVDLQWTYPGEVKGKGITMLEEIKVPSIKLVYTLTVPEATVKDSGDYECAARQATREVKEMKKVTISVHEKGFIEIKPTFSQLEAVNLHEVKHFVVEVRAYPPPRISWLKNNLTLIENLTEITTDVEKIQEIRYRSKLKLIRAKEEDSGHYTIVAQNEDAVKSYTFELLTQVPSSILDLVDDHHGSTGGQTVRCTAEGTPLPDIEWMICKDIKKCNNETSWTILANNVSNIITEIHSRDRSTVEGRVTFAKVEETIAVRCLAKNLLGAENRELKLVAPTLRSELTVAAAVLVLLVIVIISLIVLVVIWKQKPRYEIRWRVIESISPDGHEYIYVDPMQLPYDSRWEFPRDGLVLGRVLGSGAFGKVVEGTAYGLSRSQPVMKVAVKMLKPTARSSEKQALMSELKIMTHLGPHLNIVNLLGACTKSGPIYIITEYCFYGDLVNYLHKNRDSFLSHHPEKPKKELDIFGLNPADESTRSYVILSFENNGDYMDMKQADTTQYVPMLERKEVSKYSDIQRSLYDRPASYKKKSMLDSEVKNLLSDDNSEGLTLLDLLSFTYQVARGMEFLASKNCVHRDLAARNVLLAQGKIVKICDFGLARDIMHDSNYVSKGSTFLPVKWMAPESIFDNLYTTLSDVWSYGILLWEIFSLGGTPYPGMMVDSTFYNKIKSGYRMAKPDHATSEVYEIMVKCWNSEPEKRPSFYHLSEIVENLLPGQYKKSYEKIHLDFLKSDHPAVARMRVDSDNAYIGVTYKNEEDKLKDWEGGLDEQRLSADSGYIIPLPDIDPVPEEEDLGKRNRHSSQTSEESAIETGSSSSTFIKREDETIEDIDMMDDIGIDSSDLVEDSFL

Take `Cn1ncc2ccc(-c3n[nH]c4c3Cc3sc(N5CCOCC5=O)cc3-4)cc21` [Compound 79, 4-(3-(1-methyl-1H-indazol-6-yl)-1,4-dihydro-thieno[2′,3′:4,5]cyclopenta [1,2-c]pyrazol-6-yl) morpholin-3-one]: the IC50 is over 10000 nM in experiment [1], over 1000 nM in experiment [2], 1 to 10 nM in experiment [3] and 1000 to 10000 nM in experiment [4].
In the case of `Cn1ncc2ccc(-c3n[nH]c4c3Cc3sc(-c5csc(CN6CCOCC6)c5)cc3-4)cc21` [Compound 52, 4-((4-(3-(1-methyl-1H-indazol-6-yl)-1,4-dihydro-thieno[2′,3′:4,5]cyclopenta [1,2-c]pyrazol-6-yl)thiophen-2-yl)methyl) morpholine], the IC50 in experiment [1] was over 10000 nM; in experiment [2] it was over 1000 nM; in experiment [3], 10 to 30 nM; in experiment [4], over 10000 nM.
For `CN(C)S(=O)(=O)c1ccc(-c2cc3c(s2)Cc2c(-c4ccc5cnn(C)c5c4)n[nH]c2-3)cc1` [Compound 50, N,N-dimethyl-4-(3-(1-methyl-1H-indazol-6-yl)-1,4-dihydrothieno [2′,3′:4,5]cyclopenta [1,2-c]pyrazol-6-yl) benzenesulfonamide], the IC50 in experiment [1] was over 10000 nM; in experiment [2], over 1000 nM; in experiment [3], 10 to 30 nM; in experiment [4], over 10000 nM.
In the case of `C[C@@H]1CN(C(=O)c2ccc(-c3cc4c(s3)Cc3c(-c5ccc6cnn(C)c6c5)n[nH]c3-4)cc2)C[C@H](C)O1` [Compound 19, ((2S,6R)-2,6-dimethyl-morpholino)(4-(3-(1-methyl-1H-indazol-6-yl)-1,4-dihydrothieno[2′,3′:4,5]cyclopenta[1,2-c]pyrazol-6-yl)phenyl)methanone], the IC50 was over 10000 nM in experiment [1], over 1000 nM in experiment [2], 1 to 10 nM in experiment [3] and over 10000 nM in experiment [4].
In the case of `Cc1cc(-c2cc3c(s2)Cc2c(-c4ccc5cnn(C)c5c4)n[nH]c2-3)ccc1CN1CCOCC1` [Compound 26, 4-(2-methyl-4-(3-(1-methyl-1H-indazol-6-yl)-1,4-dihydrothieno[2′,3′:4,5]cyclopenta[1,2-c]pyrazol-6-yl)benzyl)morpholine], the IC50 in experiment [1] was over 10000 nM; in experiment [2], over 1000 nM; in experiment [3], 10 to 30 nM; in experiment [4], over 10000 nM.
Turning to `Cn1ncc2ccc(-c3n[nH]c4c3Cc3sc(-c5ccc(C(=O)N6CCCC6)cc5)cc3-4)cc21` [Compound 38, (4-(3-(1-methyl-1H-indazol-6-yl)-1,4-dihydro-thieno[2′,3′:4,5]cyclopenta [1,2-c]pyrazol-6-yl)phenyl)(pyrrolidin-1-yl) methanone], the IC50 in experiment [1] is over 10000 nM; in experiment [2] it was over 1000 nM; in experiment [3], 10 to 30 nM; in experiment [4] it was over 10000 nM.
As for `Cn1ncc2ccc(-c3n[nH]c4c3Cc3sc(-c5ccc(CN6CC7(COC7)C6)cc5)cc3-4)cc21` [Compound 102, 6-(4-(3-(1-methyl-1H-indazol-6-yl)-1,4-dihydro-thieno[2′,3′:4,5]cyclopenta [1,2-c]pyrazol-6-yl)benzyl)-2-oxa-6-azaspiro [3.3]heptane], the IC50 in experiment [1] is over 10000 nM; in experiment [2], 300 to 1000 nM; in experiment [3], 1 to 10 nM; in experiment [4] it was over 10000 nM.
In the case of `Cc1cc(-c2cc3c(s2)Cc2c(-c4ccc5cnn(C)c5c4)n[nH]c2-3)ccn1` [Compound 17, 3-(1-methyl-1H-indazol-6-yl)-6-(2-methylpyridin-4-yl)-1,4-dihydrothieno [2′,3′:4,5]cyclopenta[1,2-c] pyrazole], the IC50 in experiment [1] was over 10000 nM; in experiment [2], over 1000 nM; in experiment [3], 10 to 30 nM; in experiment [4], over 10000 nM.
As to `Cn1ncc2ccc(-c3n[nH]c4c3Cc3sc(-c5ccc(CN6CCOCC6)c(C(F)(F)F)c5)cc3-4)cc21` [Compound 27, 4-(4-(3-(1-methyl-1H-indazol-6-yl)-1,4-dihydrothieno[2′,3′:4,5]cyclopenta[1,2-c]pyrazol-6-yl)-2-(trifluoromethyl)benzyl)morpholine], the IC50 in experiment [1] is over 10000 nM; in experiment [2], over 1000 nM; in experiment [3] it was 100 to 300 nM; in experiment [4] it was over 10000 nM.
Consider `C[C@@H]1CN(Cc2ccc(-c3cc4c(s3)Cc3c(-c5ccc6cnn(C)c6c5)n[nH]c3-4)cn2)C[C@H](C)O1` [Compound 9, (2S,6R)-2,6-dimethyl-4-((5-(3-(1-methyl-lH-indazol-6-yl)-1,4-dihydro-thieno[2′,3′:4,5]cyclopenta [1,2-c]pyrazol-6-yl)pyridin-2-yl)methyl) morpholine], for which the IC50 in experiment [1] was over 10000 nM; in experiment [2], over 1000 nM; in experiment [3], 1 to 10 nM; in experiment [4], over 10000 nM.
For the compound `Cn1ncc2ccc(-c3n[nH]c4c3Cc3sc(-c5ccc(CCN6CCOCC6)cc5)cc3-4)cc21` [Compound 22, 4-(4-(3-(1-methyl-1H-indazol-6-yl)-1,4-dihydro-thieno[2′,3′:4,5]cyclopenta [1,2-c]pyrazol-6-yl)phenethyl)morpholine], the IC50 in experiment [1] is over 10000 nM; in experiment [2] it was over 1000 nM; in experiment [3], 10 to 30 nM; in experiment [4], over 10000 nM.
With `Cn1ncc2ccc(-c3n[nH]c4c3Cc3sc(C5=CCN(C(=O)N6CCOCC6)CC5)cc3-4)cc21` [Compound 57, (4-(3-(1-methyl-1H-indazol-6-yl)-1,4-dihydro-thieno[2′,3′:4,5]cyclopenta [1,2-c]pyrazol-6-yl)-3,6-dihydropyridin-1(2H)-yl) (morpholino)methanone], the IC50 in experiment [1] was over 10000 nM; in experiment [2] it was over 1000 nM; in experiment [3], 10 to 30 nM; in experiment [4], over 10000 nM.

The record behind these values is patent US12448394B2, “Heterocyclic pyrazole derivatives as type III receptor tyrosine kinase inhibitors” (DEVELOPMENT CENTER FOR BIOTECHNOLOGY, priority 2019, dated 2025).
